From patent US10966978B2, “Dose and regimen for HDM2-p53 interaction inhibitors” (Novartis AG, priority 2016, dated 2021)
Like-named read-outs stand apart in the source and are kept apart here.

Legend:
[1] = Clinical PK of HDM201 in patients (non-compartmental and population PK), study HDM201X2101; format: in vivo, human; settings: for Cmax: read-out: Cmax, Geo Mean (% CV); for AUC(0-t): read-out: AUClast (0-24 h), Geo Mean (% CV); for dose proportionality of PK (AUClast and Cmax): over the dose range studied, single and repeated doses
Protocol: Pharmacokinetic data have been evaluated throughout the course of the dose escalation. Two HDM201 drug variants have been evaluated during the course of the study (refer to the protocol for further details). […] Furthermore, an integrated analysis of all available HDM201 concentrations was conducted using a population approach. The PK of HDM201 was best described by a 1-compartment PK model with a delayed zero- and first-order absorption process, and a linear clearance. Body weight was identified as a statistically significant covariate on apparent central volume of distribution (Vc/F), in which Vc/F increased with increasing body weight.
Inter-patient variability (CV % Geo-mean) in exposure was generally low to moderate. Compartmental population PK modeling of NVP-HDM201 was used to estimate the individual average plasma concentration for Cycle 1 and to allow comparison with preclinical average concentration for tumor stasis derived by PK/PD tumor growth modeling.
The PK of HDM201 have been evaluated in the ongoing single agent Phase I clinical trial in patients with solid tumors and hematological malignancies (HDM201X2101). Patients have been treated with a single dose on Day 1 in a three-week cycle (q3w, regimen 1A), with a single dose on Day 1 and Day 8 in a four-week cycle (d1 and d8 of 4 w cycle, regimen 1B), or with daily dosing for the first 7 or 14 days in a four-week cycle (regimen 2C [q.d., 1 w on/3 w off] or regimen 2A [q.d., 2 w on/2 w off], respectively). PK assessments were conducted following single dose and repeated administration. Preliminary PK parameters from non-compartmental analysis of plasma concentration-time profiles are summarized by dose regimen and tumor type (data cut-off 1 Apr. 2016). PK parameters for Regimen 2A (Day 1 and 14 of Cycle 1 for doses from 1 to 20 mg) and Regimen 1A (Day 1 of Cycle 1 for doses from 12.5 to 350 mg) in solid tumor patients are summarized as representative of the PK for daily and less frequent dosing regimens (Tables 9, 10 and 11).
Following oral dosing (HDM201 capsule, fasted), the median time to reach maximum plasma concentrations ranged from 2.0 to 5.8 h across the dose range (2 to 350 mg). With the daily dosing regimen, HDM201 steady-state was generally reached by Day 8, and accumulation was less than 2-fold. […]
Furthermore, the individual PK data was best described by a 1-compartment PK model with a delayed zero- and first-order absorption process (data cut-off 1 Apr. 2016). […] Body weight was identified as a statistically significant covariate on Vc/F.

[2] = system: human SJSA-1 (osteosarcoma) xenograft; test: PK/PD tumor growth modelling, human SJSA-1 xenograft rat model; format: in vivo; settings: predicted preclinical target
Protocol: Calculation of average dose level (mg/day):
To further support the preferred dose for HDM201, compartmental PK modeling was used to estimate the individual average concentration per cycle for the 9 patients treated at 120 mg on regimen 1B (FIG. 2). For the majority of patients (7 out of 9), the estimated average drug concentrations per cycle were near or above the most conservative average tumor stasis concentration of ≈41 ng/mL per cycle determined from PKPD modeling of preclinical data (human SJSA-1 xenograft rat model).

[3] = Regimen 1A 12.5 mg, Day 1 single dose, solid malignancies, N = 1
[4] = Regimen 1A 25 mg, Day 1 single dose, solid malignancies, N = 1
[5] = Regimen 1A 50 mg, Day 1 single dose, solid malignancies, N = 4
[6] = Regimen 1A 100 mg, Day 1 single dose, solid malignancies, N = 4
[7] = Regimen 1A 200 mg, Day 1 single dose, solid malignancies, N = 5
[8] = Regimen 2A 1 mg daily, Day 14, solid malignancies, N = 1
[9] = Regimen 2A 2 mg daily, Day 14, solid malignancies, N = 2
[10] = Regimen 2A 4 mg daily, Day 14, solid malignancies, N = 3
[11] = Regimen 2A 15 mg daily, Day 14, solid malignancies, N = 4
[12] = Regimen 2A 15 mg, Day 1 single dose, solid malignancies, N = 4
[13] = human, plasma, oral, 7.5 mg, Regimen 2A 7.5 mg daily, Day 14, solid malignancies, N = 2
[14] = human, plasma, oral, 20 mg, Regimen 2A 20 mg daily, Day 14, solid malignancies, N = 4
[15] = human, plasma, oral, 20 mg, Regimen 2A 20 mg, Day 1 single dose, solid malignancies, N = 5
[16] = human, plasma, oral, 250 mg, Regimen 1A 250 mg, Day 1 single dose, solid malignancies, N = 6
[17] = human, plasma, oral, 350 mg, Regimen 1A 350 mg, Day 1 single dose, solid malignancies, N = 5

## COc1ncc(-c2nc3c(n2C(C)C)[C@H](c2ccc(Cl)cc2)N(c2cc(Cl)cn(C)c2=O)C3=O)c(OC)n1 [HDM201, (S)-5-(5-Chloro-1-methyl-2-oxo-1,2-dihydro-pyridin-3-yl)-6-(4-chloro-phenyl)-2-(2,4-dimethoxy-pyrimidin-5-yl)-1-isopropyl-5,6-dihydro-1H-pyrrolo[3,4-d]imidazol-4-one]
[1]; [3]
  AUClast (0-24 h), Geo Mean (% CV): 1483.1 ng·h/mL
  Cmax, Geo Mean (% CV): 118.0 ng/mL
  T½, Geo Mean (% CV): 7.2 h
[1]; [4]
  AUClast (0-24 h), Geo Mean (% CV): 1773.6 ng·h/mL
  T½, Geo Mean (% CV): 31.1 h
[1]; [5]
  AUClast (0-24 h), Geo Mean (% CV): 8028.8 (25.6) ng * hr/mL
  Cmax, Geo Mean (% CV): 467.0 (13.0) ng/mL
[1]; [6]
  AUClast (0-24 h), Geo Mean (% CV): 14287.0 (58.5) ng * hr/mL
  Cmax, Geo Mean (% CV): 663.3 (30.1) ng/mL
[1]; [7]
  AUClast (0-24 h), Geo Mean (% CV): 26255.2 (56.2) ng * hr/mL
  Cmax, Geo Mean (% CV): 1168.8 (43.7) ng/mL
[1]; [8]
  AUClast (0-24 h), Geo Mean (% CV): 99.5 ng·h/mL
  Cmax, Geo Mean (% CV): 14.9 ng/mL
[1]; Regimen 2A 1 mg, Day 1 single dose, solid malignancies, N = 1
  AUClast (0-24 h), Geo Mean (% CV): 134.3 ng·h/mL
[1]; [9]
  AUClast (0-24 h), Geo Mean (% CV): 109.3 (6.0) ng * hr/mL
  Cmax, Geo Mean (% CV): 17.5 (4.9) ng/mL
[1]; Regimen 2A 2 mg, Day 1 single dose, solid malignancies, N = 2
  AUClast (0-24 h), Geo Mean (% CV): 169.1 (31.5) ng * hr/mL
[1]; [10]
  AUClast (0-24 h), Geo Mean (% CV): 155.0 (21.7) ng * hr/mL
  Cmax, Geo Mean (% CV): 25.6 (23.9) ng/mL
[1]; Regimen 2A 4 mg, Day 1 single dose, solid malignancies, N = 4
  Cmax, Geo Mean (% CV): 17.6 (22.8) ng/mL
[1]; Regimen 2A 7.5 mg, Day 1 single dose, solid malignancies, N = 4
  AUClast (0-24 h), Geo Mean (% CV): 598.1 (49.8) ng * hr/mL
[1]; [11]
  AUClast (0-24 h), Geo Mean (% CV): 688.8 (29.2) ng * hr/mL
  Cmax, Geo Mean (% CV): 106.0 (27.9) ng/mL
[1]; [12]
  AUClast (0-24 h), Geo Mean (% CV): 1301.6 (71.0) ng * hr/mL
  Cmax, Geo Mean (% CV): 91.5 (56.9) ng/mL
[1]; daily dosing
  accumulation upon daily dosing: limited accumulation
[1]; daily dosing regimen
  accumulation: less than 2 fold
  steady-state reached by: ≤ 8 days
[1]; human, plasma, oral, 1 mg, Regimen 2A 1 mg daily, Day 14, solid malignancies, N = 1, read-out: Tmax, median
  Tmax: 4 h
[1]; human, plasma, oral, 1 mg, Regimen 2A 1 mg, Day 1 single dose, solid malignancies, N = 1
  Cmax: 7.9 ng/mL
[1]; human, plasma, oral, 1 mg, Regimen 2A 1 mg, Day 1 single dose, solid malignancies, N = 1, read-out: Tmax, median
  Tmax: 8 h
[1]; human, plasma, oral, 2 mg, Regimen 2A 2 mg daily, Day 14, solid malignancies, N = 2, read-out: Tmax, median
  Tmax: 3.9 h
[1]; human, plasma, oral, 2 mg, Regimen 2A 2 mg, Day 1 single dose, solid malignancies, N = 2
  Cmax: 12 ng/mL
[1]; human, plasma, oral, 2 mg, Regimen 2A 2 mg, Day 1 single dose, solid malignancies, N = 2, read-out: Tmax, median
  Tmax: 3.4 h
[1]; human, plasma, oral, 4 mg, Regimen 2A 4 mg daily, Day 14, solid malignancies, N = 3, read-out: Tmax, median
  Tmax: 4 h
[1]; human, plasma, oral, 4 mg, Regimen 2A 4 mg, Day 1 single dose, solid malignancies, N = 4
  AUC(0-t): 193 ng·h/mL
[1]; human, plasma, oral, 4 mg, Regimen 2A 4 mg, Day 1 single dose, solid malignancies, N = 4, read-out: Tmax, median
  Tmax: 2.5 h
[1]; [13]
  AUC(0-t): 222 ng·h/mL
  Cmax: 36.1 ng/mL
[1]; human, plasma, oral, 7.5 mg, Regimen 2A 7.5 mg daily, Day 14, solid malignancies, N = 2, read-out: Tmax, median
  Tmax: 3.9 h
[1]; human, plasma, oral, 7.5 mg, Regimen 2A 7.5 mg, Day 1 single dose, solid malignancies, N = 4
  Cmax: 39 ng/mL
[1]; human, plasma, oral, 7.5 mg, Regimen 2A 7.5 mg, Day 1 single dose, solid malignancies, N = 4, read-out: Tmax, median
  Tmax: 5.8 h
[1]; human, plasma, oral, 12.5 mg, Regimen 1A 12.5 mg, Day 1 single dose, solid malignancies, N = 1, read-out: Tmax, median
  Tmax: 3.2 h
[1]; human, plasma, oral, 15 mg, Regimen 2A 15 mg daily, Day 14, solid malignancies, N = 4, read-out: Tmax, median
  Tmax: 3 h
[1]; human, plasma, oral, 15 mg, Regimen 2A 15 mg, Day 1 single dose, solid malignancies, N = 4, read-out: Tmax, median
  Tmax: 3.1 h
[1]; [14]
  AUC(0-t): 1260 ng·h/mL
  Cmax: 214 ng/mL
[1]; human, plasma, oral, 20 mg, Regimen 2A 20 mg daily, Day 14, solid malignancies, N = 4, read-out: Tmax, median
  Tmax: 4 h
[1]; [15]
  AUC(0-t): 2300 ng·h/mL
  Cmax: 164 ng/mL
[1]; human, plasma, oral, 20 mg, Regimen 2A 20 mg, Day 1 single dose, solid malignancies, N = 5, read-out: Tmax, median
  Tmax: 2 h
[1]; human, plasma, oral, 25 mg, Regimen 1A 25 mg, Day 1 single dose, solid malignancies, N = 1
  Cmax: 100 ng/mL
[1]; human, plasma, oral, 25 mg, Regimen 1A 25 mg, Day 1 single dose, solid malignancies, N = 1, read-out: Tmax, median
  Tmax: 2.1 h
[1]; human, plasma, oral, 50 mg, Regimen 1A 50 mg, Day 1 single dose, solid malignancies, N = 4, read-out: Tmax, median
  Tmax: 3 h
[1]; human, plasma, oral, 50 mg, Regimen 1A 50 mg, Day 1 single dose, solid malignancies, N = 4, read-out: T½, Geo Mean (% CV) (converted)
  half-life: 11.8 h
[1]; human, plasma, oral, 100 mg, Regimen 1A 100 mg, Day 1 single dose, solid malignancies, N = 3, read-out: T½, Geo Mean (% CV) (converted)
  half-life: 16.3 h
[1]; human, plasma, oral, 100 mg, Regimen 1A 100 mg, Day 1 single dose, solid malignancies, N = 4, read-out: Tmax, median
  Tmax: 3.5 h
[1]; human, plasma, oral, 200 mg, Regimen 1A 200 mg, Day 1 single dose, solid malignancies, N = 4, read-out: T½, Geo Mean (% CV) (converted)
  half-life: 15.1 h
[1]; human, plasma, oral, 200 mg, Regimen 1A 200 mg, Day 1 single dose, solid malignancies, N = 5, read-out: Tmax, median
  Tmax: 3 h
[1]; human, plasma, oral, 250 mg, Regimen 1A 250 mg, Day 1 single dose, solid malignancies, N = 5, read-out: T½, Geo Mean (% CV) (converted)
  half-life: 15.3 h
[1]; [16]
  AUC(0-t): 23900 ng·h/mL
  Cmax: 1070 ng/mL
[1]; human, plasma, oral, 250 mg, Regimen 1A 250 mg, Day 1 single dose, solid malignancies, N = 6, read-out: Tmax, median
  Tmax: 3.5 h
[1]; human, plasma, oral, 350 mg, Regimen 1A 350 mg, Day 1 single dose, solid malignancies, N = 4, read-out: T½, Geo Mean (% CV) (converted)
  half-life: 15.1 h
[1]; [17]
  AUC(0-t): 50500 ng·h/mL
  Cmax: 1940 ng/mL
[1]; human, plasma, oral, 350 mg, Regimen 1A 350 mg, Day 1 single dose, solid malignancies, N = 5, read-out: Tmax, median
  Tmax: 4.1 h
[1]; human, plasma, oral, after Day 1 single dose (50-350 mg), read-out: Median half-life
  half-life: 13.7 to 23.1 h
[1]; human, plasma, oral, after a single dose (50 to 350 mg), read-out: Mean T½
  half-life: 11.8 to 16.3 h
[1]; human, plasma, oral, population PK, 1-compartment model, read-out: apparent volume of distribution of the central compartment (Vc/F), mean population estimate
  Vd/F: 119 L
[1]; human, plasma, po, across dose range 2 to 350 mg, read-out: median time to reach maximum plasma concentrations (Tmax)
  Tmax: 2 to 5.8 h
[1]
  dose proportionality of PK (AUClast and Cmax): approximately dose proportional
[1]; listed as NVP-HDM201
  dose proportionality of PK (AUClast and Cmax): no major deviations from dose proportionality
[1]; population PK
  inter-individual variability of CL/F: 48%
  inter-individual variability of Vc/F: 30%
[1]; population PK, 1-compartment model
  apparent oral clearance (CL/F), mean population estimate: 6.18 L/h
[1]; regimen 1B 120 mg, out of 9 patients
  patients with estimated average concentration per cycle near or above tumor stasis concentration: 7
[2]
  average concentration (target efficacious level) for 95% tumor regression: 120 ng/mL
